Test results taken from the supplement of paper PMC10307832.

How the values were obtained:
Test in all cases: relative viability (nuclei count vs DMSO), 5 days (fraction); higher = more cells survive
Venetoclax + Palbociclib = compound: CC1(C)CCC(CN2CCN(c3ccc(C(=O)NS(=O)(=O)c4ccc(NCC5CCOCC5)c([N+](=O)[O-])c4)c(Oc4cnc5[nH]ccc5c4)c3)CC2)=C(c2ccc(Cl)cc2)C1 [Venetoclax] + CC(=O)c1c(C)c2cnc(Nc3ccc(N4CCNCC4)cn3)nc2n(C2CCCC2)c1=O [Palbociclib] (partner 0.5 µM)
In short: (§1)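 Lung cancer cell lines, seeded in 1536-well plates, were treated the following day by pin tool with a single drug or with five library-drug doses (not always all listed) in √10 steps on top of a fixed anchor-drug dose. Cells were fixed and nuclei stained in one step after 5 days, and nuclei were counted. Relative viability is the nuclei count for treated wells divided by that for vehicle wells, reported as medians of duplicate plates.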

Venetoclax + Navitoclax = compound: CC1(C)CCC(CN2CCN(c3ccc(C(=O)NS(=O)(=O)c4ccc(NCC5CCOCC5)c([N+](=O)[O-])c4)c(Oc4cnc5[nH]ccc5c4)c3)CC2)=C(c2ccc(Cl)cc2)C1 [Venetoclax] + CC1(C)CCC(c2ccc(Cl)cc2)=C(CN2CCN(c3ccc(C(=O)NS(=O)(=O)c4ccc(N[C@H](CCN5CCOCC5)CSc5ccccc5)c(S(=O)(=O)C(F)(F)F)c4)cc3)CC2)C1 [Navitoclax] (partner 0.5 µM)
In short: as §1

Selumetinib + Crizotinib = compound: Cn1cnc2c(F)c(Nc3ccc(Br)cc3Cl)c(C(=O)NOCCO)cc21 [Selumetinib] + C[C@@H](Oc1cc(-c2cnn(C3CCNCC3)c2)cnc1N)c1c(Cl)ccc(F)c1Cl [Crizotinib] (partner 1 µM)
In short: as §1

Selumetinib + Linsitinib = compound: Cn1cnc2c(F)c(Nc3ccc(Br)cc3Cl)c(C(=O)NOCCO)cc21 [Selumetinib] + C[C@]1(O)C[C@@H](c2nc(-c3ccc4ccc(-c5ccccc5)nc4c3)c3c(N)nccn32)C1 [Linsitinib] (partner 1 µM)
In short: as §1

Cell Line | relative viability (Venetoclax + Palbociclib; first compound 0.01 µM) | relative viability (Venetoclax + Palbociclib; first compound 0.03162 µM) | relative viability (Venetoclax + Palbociclib; first compound 0.1 µM) | relative viability (Venetoclax + Palbociclib; first compound 0.3162 µM) | relative viability (Venetoclax + Palbociclib; first compound 1 µM) | relative viability (Venetoclax + Navitoclax; first compound 0.01 µM) | relative viability (Venetoclax + Navitoclax; first compound 0.03162 µM) | relative viability (Venetoclax + Navitoclax; first compound 0.1 µM) | relative viability (Venetoclax + Navitoclax; first compound 0.3162 µM) | relative viability (Venetoclax + Navitoclax; first compound 1 µM) | relative viability (Selumetinib + Crizotinib; first compound 0.02 µM) | relative viability (Selumetinib + Crizotinib; first compound 0.06325 µM) | relative viability (Selumetinib + Crizotinib; first compound 0.2 µM) | relative viability (Selumetinib + Crizotinib; first compound 0.6325 µM) | relative viability (Selumetinib + Linsitinib; first compound 0.02 µM) | relative viability (Selumetinib + Linsitinib; first compound 0.06325 µM) | relative viability (Selumetinib + Linsitinib; first compound 0.2 µM) | relative viability (Selumetinib + Linsitinib; first compound 0.6325 µM)
NCI-H1437 | 0.314 | 0.303 | 0.282 | 0.285 | 0.251 | 1.07 | 1.09 | 1.04 | 1.04 | 0.977 | 0.922 | 0.896 | 0.829 | 0.561 | 0.905 | 0.714 | 0.423 | 0.277
NCI-H1651 | 0.529 | 0.537 | 0.536 | 0.545 | 0.528 | 1.06 | 0.964 | 0.964 | 1.06 | 1.09 | 0.973 | 0.8 | 0.821 | 0.766 | 0.973 | 0.962 | 0.815 | 0.902
NCI-H1666 | 0.625 | 0.656 | 0.631 | 0.627 | 0.656 | 0.616 | 0.986 | 0.978 | 0.971 | 0.901 | 0.956 | 0.791 | 0.829 | 0.614 | 0.643 | 0.614 | 0.606 | 0.54
NCI-H1734 | 0.331 | 0.383 | 0.346 | 0.394 | 0.318 | 0.767 | 1 | 0.78 | 0.811 | 0.787 | 0.775 | 0.52 | 0.591 | 0.574 | 0.862 | 0.849 | 0.865 | 0.816
NCI-H1755 | 0.463 | 0.469 | 0.481 | 0.461 | 0.448 | 1.01 | 0.988 | 0.96 | 0.999 | 0.925 | 0.895 | 0.765 | 0.802 | 0.842 | 0.95 | 0.852 | 0.845 | 0.848
NCI-H1792 | 0.657 | 0.678 | 0.65 | 0.699 | 0.583 | 0.649 | 0.71 | 0.696 | 0.671 | 0.601 | 0.986 | 0.86 | 0.816 | 0.682 | 0.442 | 0.475 | 0.361 | 0.251
NCI-H1915 | 0.477 | 0.558 | 0.541 | 0.524 | 0.495 | 0.763 | 0.79 | 0.733 | 0.788 | 0.779 | 0.876 | 0.849 | 0.677 | 0.467 | 0.768 | 1.02 | 0.926 | 0.539
NCI-H1944 | 0.401 | 0.314 | 0.314 | 0.288 | 0.299 | 1.03 | 1.09 | 0.99 | 1.06 | 1.09 | 1.03 | 0.887 | 0.497 | 0.71 | 0.979 | 0.928 | 0.762 | 0.687
NCI-H1975 | 0.667 | 0.672 | 0.506 | 0.515 | 0.534 | 1.15 | 1.15 | 1.05 | 1.21 | 1.11 | 1.1 | 0.898 | 0.933 | 0.766 | 1 | 0.886 | 0.892 | 0.623
NCI-H1993 | 0.643 | 0.652 | 0.717 | 0.616 | 0.541 | 0.971 | 0.904 | 0.944 | 0.962 | 0.891 | 0.781 | 0.766 | 0.749 | 0.748 | 0.746 | 0.688 | 0.754 | 0.878
NCI-H2009 | 0.264 | 0.228 | 0.258 | 0.216 | 0.203 | 1.14 | 1.14 | 1.13 | 1.15 | 1.05 | 0.765 | 0.623 | 0.53 | 0.336 | 1.07 | 0.842 | 0.562 | 0.489
NCI-H2023 | 0.382 | 0.338 | 0.349 | 0.329 | 0.33 | 0.984 | 0.987 | 0.924 | 0.96 | 0.86 | 0.649 | 0.533 | 0.431 | 0.503 | 0.583 | 0.546 | 0.466 | 0.576
NCI-H2085 | 0.441 | 0.471 | 0.486 | 0.454 | 0.47 | 0.952 | 1.16 | 1.17 | 1.26 | 1.06 | 0.889 | 0.89 | 0.822 | 0.704 | 0.863 | 0.82 | 0.737 | 0.763
NCI-H2087 | 0.257 | 0.257 | 0.235 | 0.249 | 0.188 | 1.01 | 0.982 | 0.921 | 0.942 | 0.974 | 0.989 | 0.706 | 0.665 | 0.434 | 0.817 | 0.647 | 0.595 | 0.374
NCI-H2126 | 0.368 | 0.34 | 0.363 | 0.374 | 0.336 | 0.886 | 0.853 | 0.851 | 0.808 | 0.855 | 1.01 | 1 | 0.913 | 0.887 | 0.679 | 0.674 | 0.595 | 0.538
NCI-H2228 | 0.708 | 0.776 | 0.566 | 0.687 | 0.746 | 0.932 | 1.03 | 0.927 | 0.836 | 0.999 | 0.527 | 0.595 | 0.351 | 0.413 | 0.605 | 0.628 | 0.671 | 0.359
NCI-H2347 | 0.41 | 0.388 | 0.322 | 0.483 | 0.414 | 0.793 | 0.876 | 0.807 | 0.855 | 0.819 | 0.771 | 0.645 | 0.42 | 0.511 | 0.748 | 0.633 | 0.47 | 0.436
